From patent publication US6716866B2, “Aryl-benzimidazole compounds having antiinfective activity” (GeneSoft Pharmaceuticals, Inc., priority 2001, dated 2004) come the findings set out here.

Structures are written as SMILES.

The test system of one assay is DNA sequence AGTACT. In words: Quantitative DNase I footprint titration, site AGTACT. It is filed as binding. As to conditions: DNase I footprinting, pH 7.0, 22° C. As for the experimental part: (§1) A number of compounds according to this invention were screened for their ability to bind to three DNA sites, using DNase I footprinting.
(§2) The target sites and their complements are identified in bold underline.
(§3) The resulting duplexes were ligated to the large pUC19 XbaI/Pstl restriction fragment. […] (Sambrook et al., ibid.)
(§4) The polyamides were allowed to equilbrate at 22° C. for 16 h.

For another assay, the system named is DNA sequence ACTACT. In words: Quantitative DNase I footprint titration, site ACTACT. As to conditions: DNase I footprinting, pH 7.0, 22° C. It counts as binding. As for the experimental part: as §1, §2, §3, §4
The test system of another assay is DNA sequence ATTACT. In words: Quantitative DNase I footprint titration, site ATTACT. The settings on record: DNase I footprinting, pH 7.0, 22° C. It counts as binding. As for the experimental part: as §1, §2, §3, §4
The subject of the next assay is DNA sequence AATACT. The assay is described as follows: Quantitative DNase I footprint titration, site AATACT. As to conditions: DNase I footprinting, pH 7.0, 22° C. It is filed as binding. As for the experimental part: as §1, §2, §3, §4
The test system of the next assay is DNA sequence ACTAGT. The assay is described as follows: Quantitative DNase I footprint titration, site ACTAGT. It is filed as binding. As to conditions: DNase I footprinting, pH 7.0, 22° C. As for the experimental part:
as §1, §2, §3, §4

A further assay has as its system B. cereus ATCC 11778. The assay is described as follows: NCCLS broth microdilution MIC, B. cereus ATCC 11778. It counts as cell-based. The settings on record: organism A = B. cereus ATCC 11778. As for the experimental part: (§5) Compounds according to this invention were screened for their in vitro activities against selected species of bacteria and fungi. The minimal inhibition concentration (MIC) of these compounds was determined using the National Committee for Clinical Laboratory Standards (NCCLS) broth microdilution assay in microtiter plates, as set forth in: (1) the guidelines of the National Committee for Clinical Laboratory Standards (NCCLS) Document M7-A4 (NCCLS, 1997); (2) the guidelines of the National Committee for Clinical Laboratory Standards (NCCLS) Document M11-A4 (NCCLS, 1997); and (3) the guidelines and reference method of the National Committee for Clinical Laboratory Standards (NCCLS) Document M27-T (NCCLS, 1995). For antifungal essays, the method recommended in Murray, PR., 1995 Manual of Clinical Microbiology (ASM Press, Washington, D.C.), was employed.

In another assay the test system is C. albicans ATCC 38247. In words: NCCLS broth microdilution MIC (antifungal), C. albicans ATCC 38247. It is filed as cell-based. As to conditions: organism B = C. albicans ATCC 38247. As for the experimental part:
as §5
(Dilution methods test growth across graded concentrations, often in twofold steps.)

For the next assay, the system named is E. coli ATCC 25922. The assay is described as follows: NCCLS broth microdilution MIC, E. coli ATCC 25922. It is filed as cell-based. As to conditions: organism C = E. coli ATCC 25922. As for the experimental part:
as §5

For a further assay, the system named is E. faecalis ATCC 29212. The assay is described as follows: NCCLS broth microdilution MIC, E. faecalis ATCC 29212. The settings on record: organism D = E. faecalis ATCC 29212. It counts as cell-based. On the procedure:
as §5

For a further assay, the system named is S. pneumoniae ATCC 49619. In words: NCCLS broth microdilution MIC, S. pneumoniae ATCC 49619. It is filed as cell-based. As to conditions: organism F = S. pneumoniae ATCC 49619. As for the experimental part:
as §5

Another assay concerns S. aureus ATCC 29213. In words: NCCLS broth microdilution MIC, S. aureus ATCC 29213. It is filed as cell-based. As to conditions: organism G = S. aureus ATCC 29213. On the procedure: as §5
The test system of the next assay is E. faecium ATCC 51559. In words: MIC against drug-resistant bacteria, E. faecium ATCC 51559. It is filed as cell-based. As to conditions: organism A = E. faecium ATCC 51559, vancomycin resistant strain (VRE). On the procedure: as §5
(§6) Further, compounds (I) are effective against drug-resistant bacteria, as evidenced by the data in Table 2 below:
(§7) ATCC 27660 and ATCC 33591 are methycillin resistant strains of S. aureus (MRSA's). ATCC 51559 is a vancomycin resistant strain of E. faecium (VRE). ATCC 12228 is a methycillin resistant strain of S. epidermis (MRSE). ATCC 51422 is a penicillin resistant strain of S. pneumoniae.

The next assay deals with S. aureus ATCC 27660. The assay is described as follows: MIC against drug-resistant bacteria, S. aureus ATCC 27660. The settings on record: organism B = S. aureus ATCC 27660, methycillin resistant strain (MRSA). It is filed as cell-based. As for the experimental part: as §5, §6, §7
A further assay relates to S. aureus ATCC 33591. The assay is described as follows: MIC against drug-resistant bacteria, S. aureus ATCC 33591. It counts as cell-based. As to conditions: organism C = S. aureus ATCC 33591, methycillin resistant strain (MRSA). On the procedure: as §5, §6, §7
A further assay relates to S. epidermis ATCC 12228. The assay is described as follows: MIC against drug-resistant bacteria, S. epidermis ATCC 12228. It counts as cell-based. The settings on record: organism D = S. epidermis ATCC 12228, methycillin resistant strain (MRSE). On the procedure: as §5, §6, §7
A further assay relates to S. pneumoniae ATCC 51422. The assay is described as follows: MIC against drug-resistant bacteria, S. pneumoniae ATCC 51422. It is filed as cell-based. The settings on record: organism E = S. pneumoniae ATCC 51422, penicillin resistant strain. As for the experimental part: as §5, §6, §7

Consider `CN(C)CCCNC(=O)CCNC(=O)c1cc(NC(=O)c2cc(NC(=O)c3cc(NC(=O)c4nc(NC(=O)CCCNC(=O)c5cc(NC(=O)c6cc(NC(=O)c7ccc8nc(-c9nccn9C)[nH]c8c7)cn6C)cn5C)cn4C)cn3C)cn2C)cn1C` [Compound I-8], for which the “Association Constant, Ka” value was 1e+11 M⁻¹ in the assay on DNA sequence AGTACT; 5e+09 M⁻¹ with DNA sequence ACTACT; 5e+09 M⁻¹ in the assay with DNA sequence ATTACT; 1e+09 M⁻¹ in the assay with DNA sequence AATACT; under 1e+08 M⁻¹ with DNA sequence ACTAGT.

Turning to `Cn1cc(NC(=O)c2cc(NC(=O)c3ccc4nc(-c5sccc5Cl)[nH]c4c3)cn2C)cc1C(=O)NCCN1CCOCC1` [Compound I-4], the “Minimum Inhibitory Concentration (MIC)” value is over 32 µg/mL in the assay with B. cereus ATCC 11778; over 32 µg/mL in the assay on C. albicans ATCC 38247; over 32 µg/mL in the assay on E. coli ATCC 25922; over 32 µg/mL in the assay with E. faecalis ATCC 29212; “+++ (MIC ≦4)” in the assay with S. pneumoniae ATCC 49619; “+ (MIC from 12 to 32, inclusive)” with S. aureus ATCC 29213.

For `CN(C)CCCNC(=O)CCNC(=O)c1cc(NC(=O)c2cc(NC(=O)c3cc(NC(=O)c4nc(NC(=O)CCCNC(=O)c5cc(NC(=O)c6cc(NC(=O)c7cc(NC(=O)c8nccn8C)cn7C)cn6C)cn5C)cn4C)cn3C)cn2C)cn1C` [Compound A, reference compound], the “Association Constant, Ka” value in the assay on DNA sequence AGTACT was 3e+09 M⁻¹; with DNA sequence ACTACT, 5e+08 M⁻¹; with DNA sequence ATTACT, 5e+08 M⁻¹; with DNA sequence AATACT it was 500000 M⁻¹; with DNA sequence ACTAGT it was under 1e+08 M⁻¹.

On to `Cn1cc(NC(=O)c2cc(NC(=O)c3ccc4nc(-c5sc6ccccc6c5Cl)[nH]c4c3)cn2C)cc1C(=O)NCCN1CCOCC1` [Compound I-5], for which the “Minimum Inhibitory Concentration (MIC)” value in the assay with B. cereus ATCC 11778, with C. albicans ATCC 38247, in the assay with E. coli ATCC 25922, with E. faecalis ATCC 29212, with S. pneumoniae ATCC 49619 and in the assay on S. aureus ATCC 29213 was over 32 µg/mL each time.

Consider `CN(C)CCCNC(=O)CCNC(=O)c1cc(NC(=O)c2cc(NC(=O)c3cc(NC(=O)c4nc(NC(=O)CCCNC(=O)c5cc(NC(=O)c6cc(NC(=O)c7cc(NC(=O)c8nsc(NCCCN(C)C)c8Cl)cn7C)cn6C)cn5C)cn4C)cn3C)cn2C)cn1C` [B, reference compound], for which the “Association Constant, Ka” value is 1e+11 M⁻¹ in the assay with DNA sequence AGTACT; 7e+09 M⁻¹ in the assay with DNA sequence ACTACT; 7e+09 M⁻¹ in the assay with DNA sequence ATTACT; 7e+09 M⁻¹ in the assay with DNA sequence AATACT; under 1e+08 M⁻¹ with DNA sequence ACTAGT.

Take `Cn1cc(NC(=O)c2sccc2Cl)cc1C(=O)Nc1cc(-c2nc3ccc(C(=O)NCCN4CCCCC4)cc3[nH]2)n(C)c1` [Compound I-36]: the “Minimum Inhibitoty Concentration (MIC)” value in the assay on E. faecium ATCC 51559, with S. aureus ATCC 27660, in the assay on S. aureus ATCC 33591, in the assay with S. epidermis ATCC 12228 and in the assay on S. pneumoniae ATCC 51422 was “+++ (MIC ≦4)” in each case.

As for `Cn1cc(NC(=O)c2cc3ccccc3cn2)cc1C(=O)Nc1cc(-c2nc3ccc(C(=O)NCCN4CCC(O)CC4)cc3[nH]2)n(C)c1` [Compound I-32], the “Minimum Inhibitoty Concentration (MIC)” value in the assay on E. faecium ATCC 51559, in the assay on S. aureus ATCC 27660, with S. aureus ATCC 33591, in the assay on S. epidermis ATCC 12228 and in the assay with S. pneumoniae ATCC 51422 was “+++ (MIC ≦4)” in each case.

With `Cn1cc(NC(=O)c2ccc3nc(-c4cc(NC(=O)c5cc6ccccc6cn5)cn4C)[nH]c3c2)cc1C(=O)NCCN1CCCCC1` [Compound I-22], the “Minimum Inhibitoty Concentration (MIC)” value in the assay with E. faecium ATCC 51559, with S. aureus ATCC 27660, with S. aureus ATCC 33591, in the assay with S. epidermis ATCC 12228 and in the assay on S. pneumoniae ATCC 51422 was “+++ (MIC ≦4)” throughout.

Consider `CN(C)CCCNC(=O)CCNC(=O)c1cc(NC(=O)c2cc(NC(=O)CCNC(=O)c3cc(NC(=O)c4ccc5nc(-c6cc(Br)c(Br)s6)[nH]c5c4)cn3C)cn2C)cn1C` [Compound I-6], for which the “Minimum Inhibitory Concentration (MIC)” value in the assay with B. cereus ATCC 11778, in the assay with C. albicans ATCC 38247, in the assay on E. coli ATCC 25922, in the assay with E. faecalis ATCC 29212, in the assay on S. pneumoniae ATCC 49619 and with S. aureus ATCC 29213 was over 32 µg/mL throughout.

With `CN(C)CCCNC(=O)CCNC(=O)c1cc(NC(=O)c2cc(NC(=O)c3cc(NC(=O)c4nc(NC(=O)CCCNC(=O)c5cc(NC(=O)c6cc(NC(=O)c7ccc8nc(-c9nsc(Cl)c9Cl)[nH]c8c7)cn6C)cn5C)cn4C)cn3C)cn2C)cn1C` [Compound I-9], the “Association Constant, Ka” value was 1e+11 M⁻¹ with DNA sequence AGTACT; 5e+09 M⁻¹ in the assay with DNA sequence ACTACT; 5e+09 M⁻¹ in the assay on DNA sequence ATTACT; 1e+09 M⁻¹ in the assay with DNA sequence AATACT; under 1e+08 M⁻¹ in the assay with DNA sequence ACTAGT.

For the compound `Cn1cc(NC(=O)c2ccc3nc(-c4cc(NC(=O)c5ccc(F)cc5F)cn4C)[nH]c3c2)cc1C(=O)NCCN1CCCCC1` [Compound I-35], the “Minimum Inhibitoty Concentration (MIC)” value in the assay on E. faecium ATCC 51559, with S. aureus ATCC 27660, in the assay on S. aureus ATCC 33591, in the assay with S. epidermis ATCC 12228 and with S. pneumoniae ATCC 51422 was “+++ (MIC ≦4)” in each case.

On to `Cn1cc(NC(=O)c2ccc(Cl)cc2F)cc1C(=O)Nc1cc(-c2nc3ccc(C(=O)NCCN4CCCCC4)cc3[nH]2)n(C)c1` [Compound I-15], for which the “Minimum Inhibitoty Concentration (MIC)” value with E. faecium ATCC 51559, in the assay on S. aureus ATCC 27660, in the assay with S. aureus ATCC 33591, in the assay on S. epidermis ATCC 12228 and in the assay with S. pneumoniae ATCC 51422 was “+++ (MIC ≦4)” in each case.

For the compound `CCN(CC)CCNC(=O)c1ccc2nc(-c3cc(NC(=O)c4cc(NC(=O)c5sccc5Cl)cn4C)cn3C)[nH]c2c1` [Compound I-40], the “Minimum Inhibitoty Concentration (MIC)” value in the assay with E. faecium ATCC 51559, in the assay with S. aureus ATCC 27660, with S. aureus ATCC 33591, with S. epidermis ATCC 12228 and in the assay with S. pneumoniae ATCC 51422 was “+++ (MIC ≦4)” throughout.

With `Cn1cc(NC(=O)c2ccc(F)cc2F)cc1C(=O)Nc1cc(-c2nc3ccc(C(=O)NCCN4CCCCC4)cc3[nH]2)n(C)c1` [Compound I-21], the “Minimum Inhibitoty Concentration (MIC)” value in the assay on E. faecium ATCC 51559, in the assay with S. aureus ATCC 27660, in the assay on S. aureus ATCC 33591, in the assay with S. epidermis ATCC 12228 and in the assay with S. pneumoniae ATCC 51422 was “+++ (MIC ≦4)” each time.

Regarding `C[C@@H]1CN(CCNC(=O)c2ccc3nc(-c4cc(NC(=O)c5cc(NC(=O)c6cc7ccccc7cn6)cn5C)cn4C)[nH]c3c2)C[C@H](C)O1` [Compound I-29], the “Minimum Inhibitoty Concentration (MIC)” value with E. faecium ATCC 51559, with S. aureus ATCC 27660, in the assay with S. aureus ATCC 33591, in the assay on S. epidermis ATCC 12228 and with S. pneumoniae ATCC 51422 was “+++ (MIC ≦4)” each time.
